Type in all cases: functional, cell-based
Assay [1] deals with A549. Nature of the assay: Compound was evaluated for the cytotoxicity against A-549 tumor cell line after 3 days of incubation. As to conditions: Homo sapiens, A549, 72 h.
Assay [2] has as its system HT-29. The experiment in a line: Compound was evaluated for the cytotoxicity against HT-29 tumor cell line after 3 days of incubation. As to conditions: Homo sapiens, HT-29, 72 h.
The test system of assay [3] is SK-MEL-28. Nature of the assay: Compound was evaluated for the cytotoxicity against MEL-28 tumor cell line after 3 days of incubation. As to conditions: Homo sapiens, SK-MEL-28, 72 h.
For assay [4], the system named is P388. The experiment in a line: Compound was evaluated for the cytotoxicity against P-388 tumor cell line after 3 days of incubation. The note with it: Mus musculus, P388, 72 h.

pIC50: −log10 of the molar value.

One may read the pIC50 as the negative decadic logarithm of the IC50, by convention in mol/L. The low end stands for a high IC50, the high end for a low IC50. For the compound `C#C[C@@]1(O)C[C@H](c2cc(OC)c(OC)c(OC)c2)[C@@H]2C(=O)c3c(c(O)c4ccccc4c3O)C(=O)[C@@H]2C1`, the pIC50 in assay [1], in assay [2], in assay [3] and in assay [4] was 6.30 throughout.

Take `COc1cc([C@H]2CC(=O)C[C@H]3C(=O)c4c(c(O)c5ccccc5c4O)C(=O)[C@@H]23)cc(OC)c1OC`: the pIC50 in assay [1], in assay [2], in assay [3] and in assay [4] was 5.30 each time.

In the case of `C#C[C@]1(O)Cc2c(O)c3c(c(O)c2[C@@H](c2cc(OC)c(OC)c(OC)c2)C1)C(=O)c1ccccc1C3=O`, the pIC50 in assay [1], in assay [2], in assay [3] and in assay [4] was less than 5.00 throughout.

For the compound `COc1cc([C@H]2C[C@](O)(C(C)=O)Cc3c(O)c4c(c(O)c32)C(=O)c2ccccc2C4=O)cc(OC)c1OC`, the pIC50 in assay [1], in assay [2], in assay [3] and in assay [4] was less than 5.00 each time.

Regarding `COc1cc([C@H]2C[C@](O)(C(C)=O)C[C@H]3C(=O)c4c(c(O)c5ccccc5c4O)C(=O)[C@@H]23)cc(OC)c1OC`, the pIC50 in assay [1], in assay [2], in assay [3] and in assay [4] was 5.30 each time.

Turning to `COc1cccc2c1C(=O)c1c(O)c3c(c(O)c1C2=O)C[C@@](O)(C(=O)CO)C[C@@H]3O[C@H]1C[C@H](N)[C@H](O)[C@H](C)O1` [DOXORUBICIN], the pIC50 in assay [1], in assay [2], in assay [3] and in assay [4] was 7.70 throughout.

The values above are taken from ChEMBL document CHEMBL1149938, “New 7-aryl analogues of anthracyclines: Synthesis and cytotoxic activity of ()-7-(3,4,5-trimethoxyphenyl)-7-deoxyidarubicinone” (Bioorg Med Chem Lett, 1997).
